Measurements taken from US20250163104A1, “MACROCYCLIC IMMUNOMODULATORS” (priority 2021, published 2025).
Where a SMILES comes first, the peptide text is derived from it. Bridges are numbered along the chain shown (N, C = ends). [ ]: non-standard residue; d: D form. The star is where a group is joined. ξ: configuration not given here. Phe(4-COOH) = N[C@@H](Cc1ccc(C(=O)O)cc1)C(=O)O; Bip = N[C@@H](Cc1ccc(-c2ccccc2)cc1)C(=O)O; Phe(3-Me) = Cc1cccc(C[C@H](N)C(=O)O)c1; Val(3-OH) = CC(C)(O)[C@H](N)C(=O)O; 4Pal = N[C@@H](Cc1ccncc1)C(=O)O; Cha = N[C@@H](CC1CCCCC1)C(=O)O; Thr(3ξ) = CC(O)[C@H](N)C(=O)O; Carboxymethyl = O=C(O)C*; Nle = CCCC[C@H](N)C(=O)O; Orn = NCCC[C@H](N)C(=O)O; Dab = NCC[C@H](N)C(=O)O; Dap = NC[C@H](N)C(=O)O; Propargyl = C#CC*

target: T1, human PD-1 / PD-L1-Ig binding on Jurkat cell line over-expressing human PD-1 (Jurkat-PD-1) (Homo sapiens, UniProt Q15116); test: Jurkat-PD-1 Cell Binding High-Content Screening Assay (CBA); type: cell-based; conditions: Jurkat HPD1_PDL1 IC50, Jurkat-PD-1 cells, PE-labeled PD-L1-Ig 20 nM final
T1 construct: expressed in transfected cells; host or cells: Jurkat
T1 sequence (Q15116 25-288): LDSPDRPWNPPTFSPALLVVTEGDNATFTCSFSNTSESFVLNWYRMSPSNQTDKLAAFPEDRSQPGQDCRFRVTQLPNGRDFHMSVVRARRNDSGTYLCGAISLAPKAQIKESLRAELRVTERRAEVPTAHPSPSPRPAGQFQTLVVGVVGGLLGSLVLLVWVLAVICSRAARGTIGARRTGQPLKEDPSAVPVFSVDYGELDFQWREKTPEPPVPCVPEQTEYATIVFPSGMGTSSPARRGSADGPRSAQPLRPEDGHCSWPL
Procedure, shortened: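 Read-out: high-content imaging of PE-tagged PD-L1-Ig bound to Jurkat cells overexpressing human PD-1, after fixation with 4% paraformaldehyde and Hoechst 33342 nuclear staining. Ligand was used at 20 nM final for 1 hour, after a 2 h compound exposure at 37° C in serum-containing DMEM.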

Row | Structure (SMILES) | IC50 [nM]
1 | CC(C)C[C@H]1NC(=O)[C@H](CCCN)NC(=O)[C@H](C(C)C)NC(=O)[C@H](Cc2ccc(-c3ccccc3)cc2)NC(=O)[C@H](C(C)C)NC(=O)[C@H](Cc2c[nH]c3ccccc23)NC(=O)[C@H](CC(=O)O)NC(=O)[C@H](Cc2ccc(C(=O)O)cc2)NC(=O)[C@H](Cc2ccc(OCC(=O)O)cc2)NC(=O)CSC[C@@H](C(=O)N[C@@H](CCN)C(=O)N[C@@H](CCCNC(=N)N)C(=O)O)NC(=O)[C@H](CO)NC(=O)[C@H](C(C)C)NC(=O)[C@H](CC2CCCCC2)NC(=O)[C@H](CCN)NC1=O [Compound 2586] ({CH2CO}-Y(Carboxymethyl)[Phe(4-COOH)]DWV[Bip]V[Orn][dL][Dab][Cha]VSC[Dab]R-OH; thioether N-14) | 10

same assay, conditions: Jurkat-PD-1 cells, PE-labeled PD-L1-Ig 20 nM final; read-out: Jurkat HPD1_PDL1 IC50

Row | IC50 [nM] | Structure (SMILES)
2 | 3.5 | Cc1cccc(C[C@@H]2NC(=O)[C@H](CC(=O)O)NC(=O)[C@H](Cc3ccc(OCC(=O)O)cc3)NC(=O)[C@H](Cc3ccncc3)NC(=O)CSC[C@@H](C(=O)N[C@@H](CCN)C(N)=O)NC(=O)[C@H](CO)NC(=O)[C@H](C(C)(C)O)NC(=O)[C@H](CC3CCCCC3)NC(=O)[C@H](CCN)NC(=O)[C@@H](CC(C)C)NC(=O)[C@H](CCC(N)=O)NC(=O)[C@H](Cc3ccc(OCC(=O)O)cc3)NC(=O)[C@H](Cc3ccc(-c4ccccc4)cc3)NC(=O)[C@H](Cc3ccc(OCC(=O)O)cc3)NC2=O)c1 [Compound 2642] ({CH2CO}-[4Pal]Y(Carboxymethyl)D[Phe(3-Me)]Y(Carboxymethyl)[Bip]Y(Carboxymethyl)Q[dL][Dab][Cha][Val(3-OH)]SC[Dab]-NH2; thioether N-14)
3 | 7.2 | C#CCOc1ccc(C[C@@H]2NC(=O)[C@H](Cc3ccc(-c4ccccc4)cc3)NC(=O)[C@H](Cc3ccc(OCC(=O)O)cc3)NC(=O)[C@H](Cc3cccc(C)c3)NC(=O)[C@H](CC(=O)O)NC(=O)[C@H](Cc3ccc(OCC(=O)O)cc3)NC(=O)[C@H]([C@@H](C)O)NC(=O)CSC[C@@H](C(=O)N[C@@H](CCN)C(N)=O)NC(=O)[C@H](CCC(=O)O)NC(=O)[C@H](C(C)C)NC(=O)[C@H](CC3CCCCC3)NC(=O)[C@H](CCN)NC(=O)[C@@H](CC(C)C)NC(=O)[C@H](CCCN)NC2=O)cc1 [Compound 1836] ({CH2CO}-TY(Carboxymethyl)D[Phe(3-Me)]Y(Carboxymethyl)[Bip]Y(Propargyl)[Orn][dL][Dab][Cha]VEC[Dab]-NH2; thioether N-14)
4 | 200 | CCCC[C@@H]1NC(=O)CSC[C@@H](C(=O)N[C@@H](CCN)C(N)=O)NC(=O)[C@H](CCC(=O)O)NC(=O)[C@H](C(C)C)NC(=O)[C@H](CC2CCCCC2)NC(=O)[C@H](CCN)NC(=O)[C@@H](CC(C)C)NC(=O)[C@H](CCCN)NC(=O)[C@H](Cc2ccc(C(=O)O)cc2)NC(=O)[C@H](Cc2ccc(-c3ccccc3)cc2)NC(=O)[C@H](Cc2ccc(C(=O)O)cc2)NC(=O)[C@H](Cc2cccc(C)c2)NC(=O)[C@H](CC(N)=O)NC(=O)[C@H](Cc2ccc(OCC(=O)O)cc2)NC1=O [Example 2723] ({CH2CO}-[Nle]Y(Carboxymethyl)N[Phe(3-Me)][Phe(4-COOH)][Bip][Phe(4-COOH)][Orn][dL][Dab][Cha]VEC[Dab]-NH2; thioether N-14)
5 | 236 | CC(C)[C@@H]1NC(=O)[C@H](Cc2c[nH]c3ccccc23)NC(=O)[C@H](CC(=O)O)NC(=O)[C@H](Cc2ccncc2)NC(=O)[C@H](CN)NC(=O)CSC[C@@H](C(=O)NCC(N)=O)NC(=O)[C@H](C(C)O)NC(=O)[C@H](C(C)C)NC(=O)[C@H](CC2CCCCC2)NC(=O)[C@H](CCN)NC(=O)[C@@H](C)NC(=O)[C@H](CCCN)NC(=O)[C@H](CCN)NC(=O)[C@H](Cc2ccc(-c3ccccc3)cc2)NC1=O (some centres unmarked) [Compound 2543] ({CH2CO}-[Dap][4Pal]DWV[Bip][Dab][Orn][dA][Dab][Cha]V[Thr(3ξ)]CG-NH2; thioether N-14)
6 | 10.8 | CC(C)C[C@@H]1NC(=O)[C@H](CCCCN)NC(=O)[C@@H](CC(C)C)NC(=O)[C@H](CCCN)NC(=O)[C@H](CCCNC(=N)N)NC(=O)[C@H](Cc2ccc(-c3ccccc3)cc2)NC(=O)[C@H](C(C)C)NC(=O)[C@H](Cc2c[nH]c3ccccc23)NC(=O)[C@H](CC(=O)O)NC(=O)[C@H](Cc2ccc(O)cc2)NC(=O)[C@H](CC(N)=O)NC(=O)CSC[C@@H](C(=O)N[C@@H](C)C(N)=O)NC(=O)[C@H]([C@@H](C)O)NC(=O)[C@H](C(C)C)NC1=O [Compound 1030] ({CH2CO}-NYDWV[Bip]R[Orn][dL]KLVTCA-NH2; thioether N-14)
7 | 139 | CC(C)C[C@H]1NC(=O)[C@H](CCCN)NC(=O)[C@H](CCC(=O)O)NC(=O)[C@H](Cc2ccc(-c3ccccc3)cc2)NC(=O)[C@H](C(C)C)NC(=O)[C@H](Cc2c[nH]c3ccc(C#N)cc23)NC(=O)[C@H](CC(=O)O)NC(=O)[C@H](Cc2ccc(OCC(=O)O)cc2)NC(=O)[C@H](CN)NC(=O)CSC[C@@H](C(=O)N[C@@H](C)C(N)=O)NC(=O)[C@H]([C@@H](C)O)NC(=O)[C@H](C(C)C)NC(=O)[C@H](CC2CCCCC2)NC(=O)[C@H](CCN)NC1=O [Compound 2143]
8 | 17 | CCCC[C@H]1NC(=O)[C@H](CCCN)NC(=O)[C@H](CCCNC(N)=O)NC(=O)[C@H](Cc2ccc(-c3ccccc3)cc2)NC(=O)[C@H](C(C)C)NC(=O)[C@H](Cc2c[nH]c3ccccc23)NC(=O)[C@H](CC(=O)O)NC(=O)[C@H](Cc2ccncc2)NC(=O)[C@H](Cc2ccc(OCC(=O)O)cc2)NC(=O)CSC[C@@H](C(=O)N[C@@H](C)C(N)=O)NC(=O)[C@H]([C@@H](C)O)NC(=O)[C@H](C(C)C)NC(=O)[C@H](CC2CCCCC2)NC(=O)[C@H](CCN)NC1=O [Compound 1702]
9 | 18 | COc1ccc(C[C@@H]2NC(=O)[C@H](CN)NC(=O)CSC[C@@H](C(=O)N[C@@H](C)C(N)=O)NC(=O)[C@H]([C@@H](C)O)NC(=O)[C@H](C(C)C)NC(=O)[C@H](CC3CCCCC3)NC(=O)[C@H](CCN)NC(=O)[C@@H](CC(C)C)NC(=O)[C@H](CCCN)NC(=O)[C@H](CCCNC(N)=O)NC(=O)[C@H](Cc3ccc(-c4ccccc4)cc3)NC(=O)[C@H](C(C)C)NC(=O)[C@H](Cc3c[nH]c4ccccc34)NC(=O)[C@H](CC(=O)O)NC2=O)cc1 [Compound 2112]
10 | 36 | CCCC[C@@H]1NC(=O)[C@H](Cc2ccc(-c3ccccc3)cc2)NC(=O)[C@H](C(C)C)NC(=O)[C@H](Cc2c[nH]c3ccccc23)NC(=O)[C@H](CC(=O)O)NC(=O)[C@H](Cc2ccc(C(=O)O)cc2)NC(=O)[C@H](Cc2ccncc2)NC(=O)CSC[C@@H](C(=O)N[C@@H](C)C(N)=O)NC(=O)[C@H]([C@@H](C)O)NC(=O)[C@H](C(C)C)NC(=O)[C@H](CC2CCCCC2)NC(=O)[C@H](Cc2cnc[nH]2)NC(=O)[C@@H](CC(C)C)NC(=O)[C@H](CCCN)NC1=O [Compound 1622]
11 | 32.2 | CC(C)C[C@H]1NC(=O)[C@H](CCCN)NC(=O)[C@H](CCC(=O)O)NC(=O)[C@H](Cc2ccc(-c3ccccc3)cc2)NC(=O)[C@H](C(C)C)NC(=O)[C@H](Cc2c[nH]c3ccccc23)NC(=O)[C@H](CC(=O)O)NC(=O)[C@H](Cc2ccc(C#N)cc2)NC(=O)[C@H](Cc2ccncc2)NC(=O)CSC[C@@H](C(=O)N[C@@H](C)C(N)=O)NC(=O)[C@H]([C@@H](C)O)NC(=O)[C@H](C(C)C)NC(=O)[C@H](CC2CCCCC2)NC(=O)[C@H](CCN)NC1=O [Compound 2189]
